Legend:
T cells [1] = experiment: T cell proliferation on anti-CD3/anti-CD28 TCR crosslinking, 3H-thymidine; format: cell-based, mouse
Protocol: Naïve T cells (2×10^5) were seeded onto a 96-well plate and incubated with 1 μg/ml anti-CD3 and anti-CD28 or 10 μg/ml ConA for three days in the presence or absence of 100 pM PGE2 and then pulsed with 1 μCi/well ^3H thymidine (MP Biomedicals, Irvine, Calif.) for 18 hours before harvesting.
T cells were negatively selected using the Pan T cell isolation kit (Miltenyi Biotech Inc., Auburn, Calif.). […] 2×10^5 Naïve T cells were seeded on a 96-well plate and incubated with various dilutions of anti-CD3 and 1 μg/ml of anti-CD28 for 72 hours in the presence or absence of 1 nM PGE2 and then pulsed with 1 μCi/well ^3H thymidine (MP Biomedicals, Irvine, Calif.) for 18 hours before harvest.

T cells [2] = experiment: Apoptosis of TCR-stimulated T cells, annexin V / 7AAD staining; format: cell-based, mouse
tyrosine phosphorylation = experiment: Anti-phosphotyrosine immunoblotting of Jurkat lysates and HPK1 immunoprecipitates; format: cell-based, human; conditions: 10 pM PGE2
Protocol: Cells were lysed in a buffer containing 1% Nonidet P-40 (NP-40) and 50 mM Tris, pH 7.6, 150 mM NaCl, 1 mM […], 10 mM NaF, 10 mM sodium pyrophosphate, 10 μg/ml each of aprotinin and leupeptin, and 2 mM phenylmethylsulfonyl fluoride (PMSF). The lysates were pre-cleared with protein A-Sepharose™ and subsequently, proteins were immunoprecipitated with either 2 μg of anti-Crk antibody or an equal amount of normal rabbit Ig by incubation at 4° C. for two hours. The beads were washed with 0.1% NP-40 in immunoprecipitation wash buffer (150 mM NaCl, 20 mM HEPES, pH 7.4, 10% glycerol, 1 mM […], 5 mM NaF, and 10 μg/ml each of aprotinin and leupeptin), and the bead-bound proteins were separated by SDS-PAGE. The proteins were transferred to a polyvinylidene fluoride (PVDF) membrane, immunoblotted with the indicated antibodies and developed by the enhanced chemiluminescence (ECL) system (Amersham Corp., Arlington Heights, Ill.).
It has been reported that binding of PGE2 to its GPCR leads to rapid activation of HPK1 kinase activity (Sawasdikosol et al., 2003, Blood 101:3687). […] First, it was assessed whether PGE2 stimulation would induce general tyrosine phosphorylation in the Jurkat T cell line was examined. […]

HPK1 = HPK1 immune complex in vitro kinase (IVK) assay, endogenous HPK1 from treated Jurkat cells; format: cell-based, human; conditions: Jurkat cells, 10 pM PGE2
T cells [3] = experiment: IL-2 production by ELISA of T cell supernatants; format: cell-based, mouse
Protocol: Supernatants from the proliferation assay were collected for ELISA prior to addition of ^3H-thymidine. The protocol used for ELISA followed the instructions from BD Pharmingen.
Supernatants from the proliferation assay were collected for ELISA prior to addition of ^3H thymidine. For profiling experiments, supernatants were collected as above, with variable time points. […] Cells were then washed with PBS, re-seeded in fresh medium and stimulated with 2 μg/ml plate bound anti-CD3 and 1 μg/ml soluble anti-CD28 for eight hours and supernatants were collected for analysis. Protocol used for ELISA follows BD Pharmingen instructions.

CD4+ T cells = experiment: Intracellular IL-2 staining of CD4+ T cells (FACS); format: cell-based, mouse
Protocol: Purified naïve wild type and HPK1^−/− splenocytes were expanded with 10 μg/ml ConA for three days with or without 10 nM PGE2. 10^6 cells were seeded onto a 96-well plate and cells were either left unstimulated or were stimulated with 1 μg/ml anti-CD3 and anti-CD28 for 6 hours in the presence of GolgiStop™ (BD Pharmingen). Cells were washed with buffer containing 0.1% saponin and 0.1% BSA followed by incubation with anti-IL-2-PE for 30 min. IL-2 levels were read by flow cytometry using FACSCalibur™.
RBC-lysed wild type and HPK1^−/− splenocytes were stimulated with or without 1 nM PGE2 and 2 μg/ml anti-CD3 plus 1 μg/ml anti-CD28 for 48 hours in the presence of GolgiStop™ (BD Pharmingen) for the last five hours of culture. For profiling experiments, RBC-lysed splenocytes were stimulated with anti-CD3 and anti-CD28 for 24 hours, and GolgiStop was added in the last five hours. Cells were then fixed with 2% paraformaldehyde followed by permeabilization with a buffer containing 0.1% saponin and 0.1% BSA and the different conjugated antibodies for 30 min. Cytokine levels were read by flow cytometry using FACSCalibur™ and analyzed using Flowjo software.

EP4 receptor = EP4 receptor (Homo sapiens, UniProt P35408); experiment: IVK assay of HA-HPK1 from 293-EP4 transfectants; conditions: PGE2 stimulation
Sequence of EP4 receptor (P35408 whole entry): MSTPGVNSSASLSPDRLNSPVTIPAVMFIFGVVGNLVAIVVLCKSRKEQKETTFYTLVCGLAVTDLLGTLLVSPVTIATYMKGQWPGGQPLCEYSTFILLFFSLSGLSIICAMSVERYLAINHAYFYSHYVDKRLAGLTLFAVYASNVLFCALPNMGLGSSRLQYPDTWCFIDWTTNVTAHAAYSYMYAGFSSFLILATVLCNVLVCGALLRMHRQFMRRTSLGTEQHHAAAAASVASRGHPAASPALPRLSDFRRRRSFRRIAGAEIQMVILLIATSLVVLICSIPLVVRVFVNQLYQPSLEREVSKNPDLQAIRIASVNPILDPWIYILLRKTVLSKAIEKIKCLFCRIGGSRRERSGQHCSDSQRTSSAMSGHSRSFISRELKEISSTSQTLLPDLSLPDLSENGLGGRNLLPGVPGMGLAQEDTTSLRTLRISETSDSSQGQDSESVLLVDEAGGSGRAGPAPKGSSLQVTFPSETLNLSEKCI

[4] = Example 4, 100 pM PGE2, three days
[5] = Example 4, ELISA, addition of PGE2
[6] = Example 7, 3 day TCR stimulated cells, ELISA, 1 nM PGE2
[7] = Example 4, 10 nM PGE2, restimulated anti-CD3/anti-CD28

CCCCC[C@H](O)/C=C/[C@H]1[C@H](O)CC(=O)[C@@H]1C/C=C\CCCC(=O)O [PGE2, prostaglandin E2]
inhibition of proliferation, HPK1−/− T cells, anti-CD3/anti-CD28 (T cells [1]; [4]): 18%
inhibition of proliferation, wild type T cells, anti-CD3/anti-CD28 (T cells [1]; [4]): ~80%
inhibition of proliferation, HPK1−/− T cells, TCR cross-linking (T cells [1]; Example 8, 1 nM PGE2, 72 hours): ~20%
inhibition of proliferation, wild type T cells, TCR cross-linking (T cells [1]; Example 8, 1 nM PGE2, 72 hours): ~80%
wild type cells undergoing apoptosis (annexin V) (T cells [2]; three days of TCR stimulation with PGE2, 47% in cells not treated with PGE2): over 75%
rate of HPK1−/− T cell apoptosis (T cells [2]; three days of TCR stimulation, addition of PGE2): did not significantly increase
global tyrosine phosphorylation level (tyrosine phosphorylation; Jurkat whole cell lysates): no detectable change
tyrosine phosphorylation of HPK1 (tyrosine phosphorylation; immunoprecipitated HPK1, Jurkat): did not induce detectable tyrosine phosphorylation
HPK1 catalytic activity (IVK) (HPK1): activate the catalytic activity of HPK1
percentage of IL-2 inhibition, HPK1−/− T cells (T cells [3]; [5]): ~30%
percentage of IL-2 inhibition, wild type T cells (T cells [3]; [5]): ~84%
inhibition of IL-2 production, HPK1−/− T cells (T cells [3]; [6]): ~26%
inhibition of IL-2 production, wild type cells (T cells [3]; [6]): ~88%
CD4+ HPK1−/− cells still producing IL-2 after PGE2 addition (CD4+ T cells; [7]): over 45%
wild type cells producing IL-2 after PGE2 addition (CD4+ T cells; [7]): less than 10%
CD4+ HPK1−/− T cells still producing IL-2 after co-culture with PGE2 (CD4+ T cells; Example 7, 1 nM PGE2, 48 hours): over 22%
wild type cells producing IL-2 after co-culture with PGE2 (CD4+ T cells; Example 7, 1 nM PGE2, 48 hours): < 5%
HPK1 kinase activity (IVK), 293-EP4 transfectants (EP4 receptor): responded robustly
